Species: Rattus norvegicus
Test: Open TG-GATES - Regimen: Daily Repeat
Type: toxicity, organism-based, Sprague-Dawley
Parameters: regimen Daily Repeat, gender Male, age 6 weeks
Details: in vivo, po, 200 mg/kg, route gavage, dose level High; for APTT / Bas / Eos / Fbg / Hb / Ht / Lym / MCH / MCHC / MCV / Mono / Neu / PT / Plat / RBC / Ret / WBC: tissue Blood; for KIDNEY_L / KIDNEY_R / KIDNEY_TOTAL: tissue Kidney; for LIVER: tissue Liver; for A/G / ALP / ALT / AST / BUN / CRE / Ca / Cl / DBIL / GLC / IP / K / LDH / Na / PL / RALB / TBIL / TC / TG / TP / gamma-GTP: tissue Plasma

CCc1oc2ccccc2c1C(=O)c1cc(Br)c(O)c(Br)c1 [BENZBROMARONE]
TERMINAL_BW (72 h, time 3 day): 217 g | APTT (72 h, time 3 day): 22.6 s | Bas (72 h, time 3 day): 0% | Eos (72 h, time 3 day): 1.2% | Fbg (72 h, time 3 day): 211 mg/dL | Hb (72 h, time 3 day): 14 g/dL | Ht (72 h, time 3 day): 41.9% | Lym (72 h, time 3 day): 80% | MCH (72 h, time 3 day): 21.9 pg | MCHC (72 h, time 3 day): 33.5% | MCV (72 h, time 3 day): 65.5 fL | Mono (72 h, time 3 day): 5% | Neu (72 h, time 3 day): 14.2% | PT (72 h, time 3 day): 14.6 s | Plat (72 h, time 3 day): 104.6 x10_4/uL | RBC (72 h, time 3 day): 640.8 x10_4/ul | Ret (72 h, time 3 day): 5.7% | WBC (72 h, time 3 day): 124.5 x10_2/uL | KIDNEY_L (72 h, time 3 day): 1 g | KIDNEY_R (72 h, time 3 day): 1 g | KIDNEY_TOTAL (72 h, time 3 day): 2 g | LIVER (72 h, time 3 day): 15.3 g | A/G (72 h, time 3 day): 2.6 | ALP (72 h, time 3 day): 1041.8 IU/L | ALT (72 h, time 3 day): 45.5 IU/L | AST (72 h, time 3 day): 69.2 IU/L | BUN (72 h, time 3 day): 17 mg/dL | CRE (72 h, time 3 day): 0.7 mg/dL | Ca (72 h, time 3 day): 10 mg/dL | Cl (72 h, time 3 day): 107.9 meq/L | DBIL (72 h, time 3 day): 0.025 mg/dL | GLC (72 h, time 3 day): 167.2 mg/dL | IP (72 h, time 3 day): 6.7 mg/dL | K (72 h, time 3 day): 4.4 meq/L | LDH (72 h, time 3 day): 195 IU/L | Na (72 h, time 3 day): 141.3 meq/L | PL (72 h, time 3 day): 129.2 mg/dL | RALB (72 h, time 3 day): 4.1 g/dL | TBIL (72 h, time 3 day): 0.3 mg/dL | TC (72 h, time 3 day): 73.2 mg/dL | TG (72 h, time 3 day): 52.8 mg/dL | TP (72 h, time 3 day): 5.7 g/dL | gamma-GTP (72 h, time 3 day): 1 IU/L | TERMINAL_BW ([…], time 7 day): 254.9 g | TERMINAL_BW ([…], time 14 day): 307.7 g | TERMINAL_BW ([…], time 28 day): 357.4 g | APTT ([…], time 7 day): 18.9 s | Bas ([…], time 7 day): 0% | Eos ([…], time 7 day): 1.5% | Fbg ([…], time 7 day): 238.5 mg/dL | Hb ([…], time 7 day): 14.4 g/dL | Ht ([…], time 7 day): 42.8% | Lym ([…], time 7 day): 75.5% | MCH ([…], time 7 day): 21.6 pg | MCHC ([…], time 7 day): 33.6% | MCV ([…], time 7 day): 64.1 fL | Mono ([…], time 7 day): 7% | Neu ([…], time 7 day): 16.2% | PT ([…], time 7 day): 12.2 s | Plat ([…], time 7 day): 113.7 x10_4/uL | RBC ([…], time 7 day): 668.5 x10_4/ul | Ret ([…], time 7 day): 5.2% | WBC ([…], time 7 day): 92.8 x10_2/uL | APTT ([…], time 14 day): 18.5 s | Bas ([…], time 14 day): 0% | Eos ([…], time 14 day): 1% | Fbg ([…], time 14 day): 224.4 mg/dL | Hb ([…], time 14 day): 14.3 g/dL | Ht ([…], time 14 day): 42.7% | Lym ([…], time 14 day): 73.6% | MCH ([…], time 14 day): 20.6 pg | MCHC ([…], time 14 day): 33.4% | MCV ([…], time 14 day): 61.6 fL | Mono ([…], time 14 day): 6.2% | Neu ([…], time 14 day): 19.8% | PT ([…], time 14 day): 12.5 s | Plat ([…], time 14 day): 99.2 x10_4/uL | RBC ([…], time 14 day): 694 x10_4/ul | Ret ([…], time 14 day): 4.5% | WBC ([…], time 14 day): 138 x10_2/uL | APTT ([…], time 28 day): 17.9 s | Bas ([…], time 28 day): 0% | Eos ([…], time 28 day): 1.5% | Fbg ([…], time 28 day): 204 mg/dL | Hb ([…], time 28 day): 15 g/dL | Ht ([…], time 28 day): 44.7% | Lym ([…], time 28 day): 79.2% | MCH ([…], time 28 day): 19.1 pg | MCHC ([…], time 28 day): 33.5% | MCV ([…], time 28 day): 57.1 fL | Mono ([…], time 28 day): 5.8% | Neu ([…], time 28 day): 14.2% | PT ([…], time 28 day): 12.5 s | Plat ([…], time 28 day): 99.8 x10_4/uL | RBC ([…], time 28 day): 783.2 x10_4/ul | Ret ([…], time 28 day): 2.7% | WBC ([…], time 28 day): 130.6 x10_2/uL | KIDNEY_L ([…], time 7 day): 1.1 g | KIDNEY_R ([…], time 7 day): 1.1 g | KIDNEY_TOTAL ([…], time 7 day): 2.1 g | KIDNEY_L ([…], time 14 day): 1.2 g | KIDNEY_R ([…], time 14 day): 1.3 g | KIDNEY_TOTAL ([…], time 14 day): 2.5 g | KIDNEY_L ([…], time 28 day): 1.3 g | KIDNEY_R ([…], time 28 day): 1.4 g | KIDNEY_TOTAL ([…], time 28 day): 2.8 g | LIVER ([…], time 7 day): 18.9 g | LIVER ([…], time 14 day): 22.3 g | LIVER ([…], time 28 day): 22.9 g | A/G ([…], time 7 day): 2.6 | ALP ([…], time 7 day): 853.5 IU/L | ALT ([…], time 7 day): 34.2 IU/L | AST ([…], time 7 day): 61.2 IU/L | BUN ([…], time 7 day): 22 mg/dL | CRE ([…], time 7 day): 0.6 mg/dL | Ca ([…], time 7 day): 10.5 mg/dL | Cl ([…], time 7 day): 106.8 meq/L | DBIL ([…], time 7 day): 0.0225 mg/dL | GLC ([…], time 7 day): 190 mg/dL | IP ([…], time 7 day): 8.1 mg/dL | K ([…], time 7 day): 4.5 meq/L | LDH ([…], time 7 day): 201.5 IU/L | Na ([…], time 7 day): 140.7 meq/L | PL ([…], time 7 day): 157.5 mg/dL | RALB ([…], time 7 day): 4.7 g/dL | TBIL ([…], time 7 day): 0.2 mg/dL | TC ([…], time 7 day): 100.8 mg/dL | TG ([…], time 7 day): 35.8 mg/dL | TP ([…], time 7 day): 6.5 g/dL | gamma-GTP ([…], time 7 day): 1 IU/L | A/G ([…], time 14 day): 2.3 | ALP ([…], time 14 day): 1092 IU/L | ALT ([…], time 14 day): 36.2 IU/L | AST ([…], time 14 day): 63.6 IU/L | BUN ([…], time 14 day): 21 mg/dL | CRE ([…], time 14 day): 0.6 mg/dL | Ca ([…], time 14 day): 10.4 mg/dL | Cl ([…], time 14 day): 107.4 meq/L | DBIL ([…], time 14 day): 0.022 mg/dL | GLC ([…], time 14 day): 186 mg/dL | IP ([…], time 14 day): 7.4 mg/dL | K ([…], time 14 day): 4.3 meq/L | LDH ([…], time 14 day): 163.8 IU/L | Na ([…], time 14 day): 141.7 meq/L | PL ([…], time 14 day): 144.2 mg/dL | RALB ([…], time 14 day): 4.4 g/dL | TBIL ([…], time 14 day): 0.3 mg/dL | TC ([…], time 14 day): 87.4 mg/dL | TG ([…], time 14 day): 36.6 mg/dL | TP ([…], time 14 day): 6.3 g/dL | gamma-GTP ([…], time 14 day): 1 IU/L | A/G ([…], time 28 day): 2.2 | ALP ([…], time 28 day): 795 IU/L | ALT ([…], time 28 day): 42.5 IU/L | AST ([…], time 28 day): 64.5 IU/L | BUN ([…], time 28 day): 21 mg/dL | CRE ([…], time 28 day): 0.5 mg/dL | Ca ([…], time 28 day): 9.6 mg/dL | Cl ([…], time 28 day): 108.2 meq/L | DBIL ([…], time 28 day): 0.02 mg/dL | GLC ([…], time 28 day): 178.2 mg/dL | IP ([…], time 28 day): 7 mg/dL | K ([…], time 28 day): 4 meq/L | LDH ([…], time 28 day): 108.2 IU/L | Na ([…], time 28 day): 141.9 meq/L | PL ([…], time 28 day): 120 mg/dL | RALB ([…], time 28 day): 4 g/dL | TBIL ([…], time 28 day): 0.3 mg/dL | TC ([…], time 28 day): 69.5 mg/dL | TG ([…], time 28 day): 34.5 mg/dL | TP ([…], time 28 day): 5.9 g/dL | gamma-GTP ([…], time 28 day): 1.2 IU/L

From ChEMBL document CHEMBL3885861, “Open TG-GATES”
